Results: patent publication US20020115728A1, “Compositions and methods for treating cardiovascular disorders” (priority 2000, published 2002)

Tests used:
[1] = tested on: tocopherol-mediated peroxidation (TMP); assay: Anti-TMP index; type: biochemical
α-tocopheroxyl radical = assay: Tocopheroxyl radical attenuating ability (TRAA); type: biochemical; settings: kobs with (+) or without (−) test compound
[2] = tested on: abdominal aortic rings of balloon-injured rabbits; assay: Aortic ring study (response to NE, ACh, SNP); type: in vivo, New Zealand White rabbits
Text: Following the intervention, the abdominal aorta was removed carefully, cleared of adhering fat and connective tissue, and then cut into 2 mm-wide transverse rings just under second lumbar artery (about 9 cm distal to the common iliac artery and about 5 cm below the celiac artery). This portion of the aorta contains few branches. […] Before the start of the experiments, aortic rings were allowed to equilibrate for one hour under a resting tension of 2.5 g, followed by three washes and re-equilibration of the rings between addition of drugs inducing vaso-response. At the end of each experiment, the aortic ring was weight. The vascular function was assessed in three parts:
2) The response to the endothelium-dependent vasodilator, acetylcholine (ACh). Rings were pre-constricted with PE corresponding to a dose that gave half-maximum contraction (EC50) as calculated from the dose-response curve to NE. ACh (10^−9-10^−5 M) was added after reaching a constant contriction.
3) The response to the endothelium-independent vasodilator, sodium nitroprusside (SNP) (10^−9-10^−5 M) was determined to assess vascular smooth muscle cell function.

[3] = tested on: cGMP production by aortic rings; assay: cGMP in homogenates of aortic rings (radioimmunoassay); type: in vivo, New Zealand White rabbits; settings: aortic rings of PDA474-treated rabbits, 1 μM ACh
Procedure: cGMP in the homogenates of aortic ring was determined by a specific radioimmunoassay. […] SNP (1 μM) was used as a positive and buffer vehicle as a negative control. The cGMP content was then determined as described in the commercial assay kit (Cayman Chemical), and results expressed per tissue weight or protein.

[4] = tested on: New Zealand White rabbits with arterial balloon injury; assay: Serum and plasma lipid profile and antioxidants; type: in vivo
Procedure: (§1) Twelve rabbits were initially fed standard rabbit chow ad libitum for two weeks, before commencement of the nine weeks intervention study. Six rabbits were fed 100 g per day of standard rabbit chow without (control) or with 0.02% PDA474. At the end of week three, the abdominal aorta and right iliac artery were injured by inserting a 3F Fogarty catheter into the right femoral artery and advancing it by about 25 cm to a position just above the diaphragm. The balloon was then inflated with 0.2 mL of saline, and the catheter pulled back three times. Following injury rabbits were placed back onto their respective diet for another six weeks. During the nine weeks, blood was taken from the marginal ear vein of non-fasted rabbits each week for measuring plasma PDA474 and its metabolites. At the end of week nine, the aorta, iliofemoral arteries and a portion of various tissues (liver, kidney, heart, muscle, spleen and abdominal fat) were harvested.

[5] = tested on: New Zealand White rabbits with arterial balloon injury; assay: Liver function (serum AST, ALT, GGT); type: in vivo; settings: for Serum ALT / Serum AST / Serum GGT: 0.02% PDA474
Procedure: as §1

[6] = tested on: intimal thickening in rabbit aorta after arterial balloon injury; assay: Histological evaluation of aortic lesion formation after arterial balloon injury; type: in vivo, New Zealand White rabbits; settings: rabbits, 0.02% PDA474, six weeks after ABI
Procedure: as §1
The lower abdominal aorta and iliofemeral arteries were pre-perfusion-fixed with 4% buffered formalin at a constant physiological pressure (˜100 mmHg) before removal and placement in 4% buffered formalin for further fixation for 12 h at room temperature. Two parts of the abdominal aorta were taken for lesion assessment. One part (referred to as A1) was located just above 3rd lumber artery close to the lumber branches, and the other part (referred to as A3) represented the central part between 3rd and 4th lumber arteries, where there are few branches. A1 and A3 specimens were embedded in paraffin and two sections (200 μm apart) were taken from each specimen and stained with Verhoeff hematoxylin.
The intima, media and intima/media ratio (IMR) were calculated by tracing the intimal and medial areas and determining their respective total pixel numbers. High IMR indicate large lesions. In addition, the perimeter of the external elastic lamina and the lumen were quantified using Scion Image Software to assess the extent of vessel remodeling.

[7] = PDA474 and metabolite levels in plasma, aorta and major tissues; type: in vivo, New Zealand White rabbits
Procedure: as §1

[8] = 0.02% PDA474, Week 0 (baseline)

Cc1cc(C(C)(C)C)c(O)c(C(C)(C)C)c1 [BHT]
Anti-TMP index [1]: 8-10
TRAA (decay of tocopheroxyl radical; kobs(+)/kobs(−)) (α-tocopheroxyl radical): Immediate decay

CC(C)(C)c1cc(SSc2cc(C(C)(C)C)c(O)c(C(C)(C)C)c2)cc(C(C)(C)C)c1O [PDA474]
muscle tone (g/mg tissue) vs control aortic rings ([2]; NE-induced constriction, PDA474-treated rabbits): nearly twice as high
SNP-induced relaxation vs control ([2]; rings from PDA474-treated rabbits): comparable
ACh-induced relaxation of aortic rings ([2]; rings from PDA474-treated rabbits, pre-constricted with NE at EC50, maximal response at ˜10^−5M ACh): 61 % relaxation
NE-induced constriction of abdominal aortic rings vs control ([2]; rings from balloon-injured rabbits fed 0.02% PDA474): significantly increased
tissue cGMP concentrations in response to ACh vs control [3]: significantly increased
Plasma Ascorbate [4, 8]: 34.56 ± 4.36 µmol/L
Plasma Ch18:2 [4, 8]: 0.19 ± 0.02 mmol/L
Plasma Ch20:2 [4, 8]: 0.01 ± 0.00 mmol/L
Plasma Free Chol [4, 8]: 0.49 ± 0.05 mmol/L
Plasma Total Chol [4, 8]: 0.69 ± 0.07 mmol/L
Plasma Urate [4, 8]: 5.56 ± 0.43 µmol/L
Plasma a-TOH [4, 8]: 4.40 ± 0.24 µmol/L
Serum HDL Chol [4, 8]: 0.58 ± 0.07 mmol/L
Serum Triglycerides [4, 8]: 0.95 ± 0.11 mmol/L
Plasma Ascorbate ([4]; 0.02% PDA474, Week 3 (ABI)): 44.01 ± 5.29 µmol/L
Plasma Ch18:2 ([4]; 0.02% PDA474, Week 3 (ABI)): 0.19 ± 0.02 mmol/L
Plasma Ch20:2 ([4]; 0.02% PDA474, Week 3 (ABI)): 0.08 ± 0.00 mmol/L
Plasma Free Chol ([4]; 0.02% PDA474, Week 3 (ABI)): 0.42 ± 0.03 mmol/L
Plasma Total Chol ([4]; 0.02% PDA474, Week 3 (ABI)): 0.62 ± 0.03 mmol/L
Plasma Urate ([4]; 0.02% PDA474, Week 3 (ABI)): 5.86 ± 0.65 µmol/L
Plasma a-TOH ([4]; 0.02% PDA474, Week 3 (ABI)): 5.02 ± 0.50 µmol/L
Serum Cholesterol ([4]; 0.02% PDA474, Week 3 (ABI)): 0.77 ± 0.14 mmol/L
Serum HDL Chol ([4]; 0.02% PDA474, Week 3 (ABI)): 0.50 ± 0.09 mmol/L
Serum Triglycerides ([4]; 0.02% PDA474, Week 3 (ABI)): 0.98 ± 0.15 mmol/L
Plasma Ch18:2 ([4]; 0.02% PDA474, Week 6): 0.25 ± 0.10 mmol/L
Plasma Ch20:2 ([4]; 0.02% PDA474, Week 6): 0.02 ± 0.01 mmol/L
Plasma Free Chol ([4]; 0.02% PDA474, Week 6): 0.43 ± 0.11 mmol/L
Plasma Total Chol ([4]; 0.02% PDA474, Week 6): 0.70 ± 0.21 mmol/L
Plasma a-TOH ([4]; 0.02% PDA474, Week 6): 4.76 ± 0.64 µmol/L
Serum Cholesterol ([4]; 0.02% PDA474, Week 6): 1.15 ± 0.51 mmol/L
Serum HDL Chol ([4]; 0.02% PDA474, Week 6): 0.51 ± 0.15 mmol/L
Serum Triglycerides ([4]; 0.02% PDA474, Week 6): 0.93 ± 0.08 mmol/L
Plasma Ascorbate ([4]; 0.02% PDA474, Week 9 (cull)): 46.51 ± 5.49 µmol/L
Plasma Ch18:2 ([4]; 0.02% PDA474, Week 9 (cull)): 0.16 ± 0.02 mmol/L
Plasma Ch20:2 ([4]; 0.02% PDA474, Week 9 (cull)): 0.04 ± 0.00 mmol/L
Plasma Free Chol ([4]; 0.02% PDA474, Week 9 (cull)): 0.30 ± 0.03 mmol/L
Plasma Total Chol ([4]; 0.02% PDA474, Week 9 (cull)): 0.46 ± 0.04 mmol/L
Plasma Urate ([4]; 0.02% PDA474, Week 9 (cull)): 5.24 ± 1.25 µmol/L
Plasma a-TOH ([4]; 0.02% PDA474, Week 9 (cull)): 3.60 ± 0.31 µmol/L
Serum Cholesterol ([4]; 0.02% PDA474, Week 9 (cull)): 0.67 ± 0.06 mmol/L
Serum HDL Chol ([4]; 0.02% PDA474, Week 9 (cull)): 0.42 ± 0.04 mmol/L
Serum Triglycerides ([4]; 0.02% PDA474, Week 9 (cull)): 0.97 ± 0.13 mmol/L
hypocholesterolemic effect ([4]; rabbits, 0.02% PDA474, 9 weeks): no hypocholesterolemic effect
Serum Cholesterol ([4]; rabbits, chow with 0.02% PDA474, Week 0 (baseline)): 1.13 ± 0.15 mmol/L
Serum ALT ([5]; Week 0 (baseline)): 51.17 ± 3.08 U/L
Serum AST ([5]; Week 0 (baseline)): 28.17 ± 2.65 U/L
Serum GGT ([5]; Week 0 (baseline)): 11.50 ± 1.06 U/L
Serum ALT ([5]; Week 3 (ABI)): 76.00 ± 8.13 U/L
Serum AST ([5]; Week 3 (ABI)): 63.33 ± 23.47 U/L
Serum GGT ([5]; Week 3 (ABI)): 12.33 ± 2.29 U/L
Serum ALT ([5]; Week 6): 72.83 ± 5.19 U/L
Serum AST ([5]; Week 6): 33.83 ± 8.79 U/L
Serum GGT ([5]; Week 6): 13.67 ± 0.76 U/L
Serum ALT ([5]; Week 9 (cull)): 100.67 ± 10.43 U/L
Serum AST ([5]; Week 9 (cull)): 69.67 ± 14.34 U/L
Serum GGT ([5]; Week 9 (cull)): 12.33 ± 0.99 U/L
effect on liver function ([5]; rabbits, 0.02% PDA474, 9 weeks): did not affect liver function
intima-to-media ratio (IMR), Section A1 of the abdominal aorta, vs control [6]: significantly lower
media areas of abdominal aorta vs control [6]: significantly increased
vascular remodeling (lumen area, EEL perimeter) [6]: did not affect
Fat PDA474 level ([7]; 0.02% PDA474, 9 weeks, abdominal fat): 1.99 ± 0.40 nmol/mg P
Aorta PDA474 level ([7]; 0.02% PDA474, 9 weeks, aorta): 0.59 ± 0.12 nmol/mg P
Heart PDA474 level ([7]; 0.02% PDA474, 9 weeks, heart): 0.65 ± 0.43 nmol/mg P
Kidney PDA474 level ([7]; 0.02% PDA474, 9 weeks, kidney): 0.26 ± 0.06 nmol/mg P
Liver PDA474 level ([7]; 0.02% PDA474, 9 weeks, liver): 7.30 ± 2.82 nmol/mg P
Muscle PDA474 level ([7]; 0.02% PDA474, 9 weeks, muscle): 0.17 ± 0.06 nmol/mg P
Spleen PDA474 level ([7]; 0.02% PDA474, 9 weeks, spleen): 0.30 ± 0.13 nmol/mg P
concentration at 9 weeks ([7]; New Zealand White, rabbit, oral, 0.02 % in chow, rabbits, 0.02% PDA474 in chow, 9 weeks, plasma, read-out: Plasma PDA474 level): 370 ± 40 nM
time until plasma concentrations of PDA474 reached steady state ([7]; rabbits, chow with 0.02% PDA474): 1˜2 weeks
amount of the administered PDA474 reaching the circulation ([7]; rabbits, chow with 0.02% PDA474, estimated): < 1%

diphenoquinone [H 330/68]
Anti-TMP index [1]: 100
TRAA (decay of tocopheroxyl radical; kobs(+)/kobs(−)) (α-tocopheroxyl radical): kobs(+)/kobs(−)˜1
